What was measured:
[1] = test system: Capan2 pancreatic adenocarcinoma cells; assay: SRB assay (48 h) on Capan2 cells; type: cell-based
Procedure: 3 × 10^3 Capan2 cells, 2 × 10^3 Saos cells and 8 × 10^3 L428 were plated to 96 well plates. Cells were treated with the compounds in the concentrations for 48 h. Then for Capan2 and Saos SRB assay was performed, L428 cells were counted using a Burker chamber. Data is represented as average ± SD, from three biological replicates; individual assays were performed in duplicates. Values were normalized for vehicle treated cells, absorbance for vehicle treated cells equals to 1. Normality was checked using the Shapiro-Wilk test. The Saos Os-7 dataset was normalized using the Box-Cox method, other datasets had normal distribution. Each complex was individually assessed for statistical significance using One-way ANOVA test followed by Dunnett’s post hoc test; all values were compared to the values of the lowest concentration. For better visibility the p values are presented in an excel sheet at https://figshare.com/s/2c942a812caea8869a67. Non-linear regression was performed on the Capan2 and Saos datasets.
Capan2 cells were maintained in MEM, 10% fetal bovine serum, 1% Penicillin/Streptomycin, 2 mM Glutamine.
The assay was performed similar to ([Kovács et al., 2019]). Cells were seeded in 96 well plates the day before the assay. Cells were treated with the compounds for 48 h. Cells were fixed with 10% trichloroacetic acid (TCA). Fixed cells were washed in distilled water 3 times followed by staining with SRB (0.4 m/V% dissolved in 1% acetic acid) for 10 min. Stained cells were washed in 1% acetic acid 5 times; acetic acid was removed and cells were left to dry. Protein-bound SRB was released by adding 100 µl 10 mM Tris base. Plates were measured in a plate photometer (Thermo Scientific Multiscan GO spectrophotometer, Waltham, MA, United States) at 540 nm. On each plate wells were designed to contain vehicle-treated cells. In calculations the readings for these wells was considered as 1 and all readings were expressed relative to these values.
Statistical analysis was performed using 8.0.1 version of Graphpad Prism. Values were tested for normal distribution using the D’Agostino and Pearson normality test. When necessary, values were log normalized or were normalized using the Box-Cox normalization method ([Box and Cox, 1964]) as indicated in the figure captions. Non-linear regression was performed using the built-in “[Inhibitor] vs. response—Variable slope (four parameters), least square fit” utility of Graphpad that yielded IC50 and Hill slope values.

[2] = test system: primary dermal fibroblasts; assay: MTT reduction assay (4 h) on primary fibroblasts; type: cell-based; conditions: primary human dermal fibroblasts
Procedure: 3 × 10^3 A2780 cells, 2 × 10^3 ID8 cells and 4 × 10^3 primary fibroblasts were plated to 96 well plates. Cells were treated with the compounds in the concentrations indicated for either 4 h for an MTT assay or for 48 h for an SRB assay. Data is represented as average ± SD, from three biological replicates; individual assays were performed in duplicates. Values were normalized for vehicle treated cells, absorbance for vehicle treated cells equals to 1. Statistical significance was assessed using two-way ANOVA test comparing the free ligand and each complex as a complex-ligand pair. Before the test normality was assessed using the D’Agostino-Pearson test. The ID8 SRB Ir-7+L-7 dataset had lognormal distribution. […] All other datasets had normal distribution. For better visibility the p values are presented in an excel sheet at https://figshare.com/s/2c942a812caea8869a67. Non-linear regression was performed on the A2780 SRB and the ID8 SRB datasets.
Human primary dermal fibroblasts were cultured in low glucose DMEM (1 g/L glucose) medium supplemented with 20% fetal calf serum, 2 mM glutamine, 1% penicillin-streptomycin.
MTT reduction assay measures the activity of mitochondrial complex I and can be used to detect toxicity ([Virág et al., 1998]; [Henslee et al., 2016]). The assay was performed similar to ([Bakondi et al., 2003]). Briefly, cells were plated in 96 well plates the day before the assay. Cells were treated with the compounds for 4 h, then MTT was added in 0.5 mg/ml final concentration and cells were incubated at 37°C in a cell incubator. Culture media was removed and the reduced MTT dye was dissolved in dimethyl-sulfoxide (DMSO) and plates were measured in a plate photometer (Thermo Scientific Multiscan GO spectrophotometer, Waltham, MA, United States) at 540 nm. On each plate wells were designed to contain untreated/vehicle-treated cells. In calculations the readings for these wells was considered as 1 and all readings were expressed relative to these values.

[3] = test system: vancomycin-resistant Enterococcus (VRE) clinical isolates; assay: Broth microdilution MIC, clinical VRE isolates; type: cell-based, E. faecium; conditions: for MIC against clinical VRE isolates (as a group): 3 clinical VRE isolates; for MIC, VRE 25 051: clinical isolate 25 051, nephrostoma; for MIC, VRE 25 051 / MIC, VRE 25 498 / MIC, VRE 27 085: 2018; for MIC, VRE 25 498: clinical isolate 25 498, rectal swab; for MIC, VRE 27 085: clinical isolate 27 085, wound
Procedure: (§1) The MIC values of the complexes were determined against the reference strains of S. aureus (ATCC29213) and E. faecalis. (ATCC29212) and against clinical VRE and MRSA isolates by microdilution assays (repeated at least twice in duplicates) as described in Materials and Methods. The numbers indicate how many isolates were susceptible to the compound out of those tested; i.e., 1/6 stands for 1 isolate was susceptible out of 6 tested. […] Cells were harvested and lysed. Cellular proteins was separated on a 10% SDS-PAGE gel and were blotted. Blots were probed with 4HNE antibody (top blot), the lower blot was stained with amido black. Arrows point at band of interest. Experiments were repeated three times and a representative blot is shown. On the blots brightness and contrast were adjusted. […] Each was matched to a substance and strain by its position over the x-axis categories. / Ir-7: ND and 0/3 (left plot) and ND and 0/6 (right plot) were matched to E. faecalis/VRE and S. aureus/MRSA by position only.
(§2) We used a set of clinical isloates of S. aureus and E. faecium that were collected at the Medical Center of the University of Debrecen (Hungary) between 01. 01. 2018.—31. 12. 2020. The clinical isolates were identified using a Microflex MALDI-TOF mass spectrometer (Bruker, Billerica, MA, United States). Antibiotic susceptibility of the isolates was tested following the European Committee on Antimicrobial Susceptibility Testing ([EUCAST, 2021]) guidelines valid at the time of collection.
(§3) Microdilution experiments were performed according to the standards of EUCAST ([EUCAST, 2021]). […] The inoculated plates were incubated for 24 h at 37°C then were assessed visually. […] All experiments were performed at least twice in duplicates.

[4] = test system: methicillin-resistant Staphylococcus aureus (MRSA) clinical isolates; assay: Broth microdilution MIC, clinical MRSA isolates; type: cell-based; conditions: for MIC against clinical MRSA isolates (as a group): 6 clinical MRSA isolates; for MIC, MRSA 20 426: clinical isolate 20 426, blood, 2020; for MIC, MRSA 24 035: clinical isolate 24 035, wound; for MIC, MRSA 24 035 / MIC, MRSA 24 268 / MIC, MRSA 24 272 / MIC, MRSA 24 328 / MIC, MRSA 24 408: 2018; for MIC, MRSA 24 268: clinical isolate 24 268, throat; for MIC, MRSA 24 272: clinical isolate 24 272, throat; for MIC, MRSA 24 328: clinical isolate 24 328, throat; for MIC, MRSA 24 408: clinical isolate 24 408, bronchial
Procedure: as §1, §2, §3

| Compound | Capan2 SRB Max. (maximal inhibition) [1] [%] | IC50 [1] [µM] | Fibroblast MTT Max. (maximal inhibition) [2] [%] | MIC against clinical VRE isolates (as a group) [3] | MIC, VRE 25 051 [3] | MIC, VRE 25 498 [3] | MIC, VRE 27 085 [3] | MIC against clinical MRSA isolates (as a group) [4] | MIC, MRSA 20 426 [4] | MIC, MRSA 24 035 [4] | MIC, MRSA 24 268 [4] | MIC, MRSA 24 272 [4] | MIC, MRSA 24 328 [4] | MIC, MRSA 24 408 [4] | MRSA isolates susceptible out of those tested ([4]; 6 isolates tested, susceptible = MIC up to 40 µM) |
| --- | --- | --- | --- | --- | --- | --- | --- | --- | --- | --- | --- | --- | --- | --- | --- |
| Cc1c(C)c(C)[c-](C)c1C.F[P-](F)(F)(F)(F)F.O=C(OCC1OC(n2cc(-c3ccc4ccccc4n3)nn2)C(OC(=O)c2ccccc2)C(OC(=O)c2ccccc2)C1OC(=O)c1ccccc1)c1ccccc1.[Cl][Ir+2] (mixture of isomers) [Ir-7] | 48.83 | 1.93 | 12.81 | no activity | 40< µM | 40< µM | 40< µM | no activity | 40< µM | 40< µM | 40< µM | 40< µM | 40< µM | 40< µM |  |
| Cc1ccc(C(C)C)cc1.F[P-](F)(F)(F)(F)F.O=C(OCC1OC(n2cc(-c3ccc4ccccc4n3)nn2)C(OC(=O)c2ccccc2)C(OC(=O)c2ccccc2)C1OC(=O)c1ccccc1)c1ccccc1.[Cl][Os+] (mixture of isomers) [Os-7] | 59.11 | 1.35 | 30.97 | 10 µM | 10 µM | 10 µM | 10 µM | 5 µM | 40< µM | 40< µM | 40< µM | 5 µM | 40< µM | 40< µM | 1 out of the 6 |
| Cc1ccc(C(C)C)cc1.F[P-](F)(F)(F)(F)F.O=C(OCC1OC(n2cc(-c3ccc4ccccc4n3)nn2)C(OC(=O)c2ccccc2)C(OC(=O)c2ccccc2)C1OC(=O)c1ccccc1)c1ccccc1.[Cl][Ru+] (mixture of isomers) [Ru-7] | 39.80 | 1.39 | 23.93 | 5 µM | 5 µM | 5 µM | 5 µM | 5 to 40 µM | 10 µM | 40 µM | 20 µM | 5 µM | 10 µM | 10 µM |  |

— publication PMC9923724, “Half sandwich-type osmium, ruthenium, iridium and rhodium complexes with bidentate glycosyl heterocyclic ligands induce cytostasis in platinum-resistant ovarian cancer cells and bacteriostasis in Gram-positive multiresistant bacteria” (Frontiers in Chemistry, 2023)
